For 4 compounds, EC50 results are on record in patent US9474790B2, “Stable, protracted GLP-1/glucagon receptor co-agonists for medical use” (Novo Nordisk A/S, priority 2013, dated 2016).

The structures appear in SMILES notation. Numbered stars: 1 amine (or outer) side, 2 acyl side, 3 side chain; on linkers, the order of the positions; unused ones are H or OH. Bridge positions count the residues as written; N and C are the ends. Square brackets hold non-standard residues; d marks the D form. Side chains are listed from the residue outwards. Peptide text beside a SMILES is read from it. I, II: the chains in the order shown. * marks the point of attachment. C18 diacid = O=C(O)CCCCCCCCCCCCCCCCC(=O)*; γGlu = O=C(O)[C@H](CCC(=O)[*:2])N[*:1]; Ac4c = NC1(C(=O)O)CCC1; AEEA = NCCOCCOCC(=O)O; Aib = CC(C)(N)C(=O)O

Assay [1] addresses T1, human GLP-1 receptor (Homo sapiens, UniProt P43220).
T1 construct: expressed in transfected cells; host or cells: BHK cells (parent BHKTS13), clone FCW467-12A/KZ10-1, with CRE luciferase
Briefly: GLP-1 receptor potency, CRE luciferase reporter gene assay in BHK cells. The format is cell-based. Conditions: BHK cells expressing human GLP-1 receptor, read-out: EC50 GLP-1R. The method, boiled down: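 Potency as cAMP-driven firefly luciferase signal after 3 h, 37° C exposure to 10-fold dilutions (final 1×10EE-13–1×10EE-6 M). Stable hGLP-1R/CRE-luc BHK clone, 5×10EE3 cells/well, medium containing 2% ovalbumin and 0.2% Pluronic F-68; EC50 (pM) from variable-slope non-linear regression.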
On the technique in general: In a reporter assay the amount or activity of a reporter protein is the signal.

The target of assay [2] is T2, human glucagon receptor (Homo sapiens, UniProt P47871).
T2 construct: expressed in transfected cells; host or cells: BHK cells (parent BHK570, CRE luciferase clone BHK/KZ10-20-48), clone pLJ6'-4-25
Briefly: Glucagon receptor potency, CRE luciferase reporter gene assay in BHK cells. The format is cell-based. The following applies: BHK cells expressing human glucagon receptor, read-out: EC50 GlucR. How it is done: The purpose of this example was to test the potency, of the glucagon derivatives of the invention, in vitro. The in vitro potency is the measure of human GLP-1 receptor or glucagon receptor activation, respectively, in a whole cell assay.
In vitro potency was determined by measuring the response of human GLP-1 or glucagon receptor, respectively, in a reporter gene assay. The assay was performed in a stably transfected BHK cell line that expresses either the human GLP-1 receptor or the human glucagon receptor and contains the DNA for the cAMP response element (CRE) coupled to a promoter and the gene for firefly luciferase (CRE luciferase). […] When assay incubation was completed, the luciferase substrate (luciferin) was added and the enzyme converted luciferin to oxyluciferin and produces bioluminescence. The luminescence was measured as the readout for the assay.
The cells used in this assay (clone pLJ6′-4-25) were BHK cells with BHK570 as a parent cell line expressing the CRE luciferase gene (clone BHK/KZ10-20-48) and were established by further transfection with the human glucagon receptor (clone pLJ6′ in pHZ-1 vector).
The cells were cultured at 5% CO2 in DMEM medium with 10% FBS, 1×GlutaMAX, 1 mg/ml G418, 240 nM MTX (methotrexate) and 1% pen/strep (penicillin/streptomycin). They were aliquoted and stored in liquid nitrogen. Before each assay, an aliquot was taken up and washed three times in PBS before being suspended at the desired concentration in assay medium. For 96-well plates the suspension was made to give a final concentration of 5×10EE3 cells/well.
The following chemicals were used in the assay: Pluronic F-68 (10%) (Gibco 2404), ovalbumin (Sigma A5503), DMEM w/o phenol red (Gibco 11880-028), 1 M Hepes (Gibco 15630), Glutamax 100× (Gibco 35050) and steadylite plus (PerkinElmer 6016757).
Assay Medium consisted of DMEM w/o phenol red, 10 mM Hepes, 1× GlutaMAX, 2% Ovalbumin and 0.2% Pluronic F-68.
Cell stocks were thawed in a 37° C. water bath. Cells were washed three times in PBS. The cells were counted and adjusted to 5×10EE3 cells/50 μl (1×10EE5 cells/ml) in Assay Medium. A 50 μl aliquot of cells was transferred to each well in the assay plate.
Stocks of the test compounds and reference compounds were diluted to a concentration of […] in Assay Medium. Compounds were diluted 10-fold to give the following concentrations: 2×10EE-6 M, 2×10EE-7 M, 2×10EE-8 M; 2×10EE-9 M, 2×10EE-10 M, 2×10EE-11 M, 2×10EE-12 M and 2×10EE-13 M. For each compound a blank assay medium control was also included.
A 50 μl aliquot of compound or blank was transferred from the dilution plate to the assay plate. Compounds were tested at the following final concentrations: 1×10EE-6 M, 1×10EE-7 M, 1×10EE-8 M; 1×10EE-9 M, 1×10EE-10 M, 1×10EE-11 M and 1×10EE-12 M and 1×10EE-13 M.
The assay plate was incubated for 3 h in a 5% CO2 incubator at 37° C. The assay plate was removed from the incubator and allowed to stand at room temperature for 15 min. A 100 μl aliquot of steadylite plus reagent was added to each well of the assay plate (reagent is light sensitive). Each assay plate was covered with aluminum foil to protect it from light and shaken for 30 min at room temperature. Each assay plate was read in a Perkin Elmer TopCount NXT instrument.
The data from the TopCount instrument was transferred to GraphPad Prism software. The software performed a non-linear regression (log(agonist) vs response-Variable slope (four parameter)). EC50 values were calculated by the software and reported in pM.

T2 sequence (P47871 26-477): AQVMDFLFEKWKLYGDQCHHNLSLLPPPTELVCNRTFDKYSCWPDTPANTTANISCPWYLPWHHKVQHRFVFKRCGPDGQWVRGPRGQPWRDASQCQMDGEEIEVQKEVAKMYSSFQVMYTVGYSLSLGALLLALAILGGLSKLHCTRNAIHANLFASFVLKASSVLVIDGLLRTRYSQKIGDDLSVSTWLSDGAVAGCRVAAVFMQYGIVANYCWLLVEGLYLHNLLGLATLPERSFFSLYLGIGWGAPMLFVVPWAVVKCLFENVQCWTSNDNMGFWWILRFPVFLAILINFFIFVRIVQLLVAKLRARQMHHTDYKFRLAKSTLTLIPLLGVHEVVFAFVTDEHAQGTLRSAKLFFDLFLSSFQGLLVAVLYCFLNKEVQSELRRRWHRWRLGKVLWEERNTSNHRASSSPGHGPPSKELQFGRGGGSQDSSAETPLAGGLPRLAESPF
T1 sequence (P43220 24-463): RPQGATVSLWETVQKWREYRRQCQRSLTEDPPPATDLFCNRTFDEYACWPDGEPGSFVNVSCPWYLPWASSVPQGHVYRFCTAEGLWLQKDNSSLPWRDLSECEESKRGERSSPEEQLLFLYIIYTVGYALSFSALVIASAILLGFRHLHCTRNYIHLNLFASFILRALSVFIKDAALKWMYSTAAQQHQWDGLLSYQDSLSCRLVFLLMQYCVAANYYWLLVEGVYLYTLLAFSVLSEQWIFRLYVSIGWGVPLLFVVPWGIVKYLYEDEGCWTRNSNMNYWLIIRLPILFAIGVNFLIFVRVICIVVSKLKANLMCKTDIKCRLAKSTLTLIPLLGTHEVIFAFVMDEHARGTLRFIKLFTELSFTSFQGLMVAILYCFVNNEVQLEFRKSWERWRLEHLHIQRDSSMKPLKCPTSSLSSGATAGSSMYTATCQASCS

Regarding `CC(C)C[C@H](NC(=O)[C@H](Cc1ccc(O)cc1)NC(=O)[C@H](CCCCN)NC(=O)[C@H](CO)NC(=O)[C@H](CC(C)C)NC(=O)[C@H](CC(=O)O)NC(=O)[C@H](CO)NC(=O)[C@@H](NC(=O)[C@H](Cc1ccccc1)NC(=O)[C@@H](NC(=O)CNC(=O)[C@H](CCC(N)=O)NC(=O)C(C)(C)NC(=O)[C@@H](N)Cc1c[nH]cn1)[C@@H](C)O)[C@@H](C)O)C(=O)N[C@@H](CCC(=O)O)C(=O)N[C@@H](CO)C(=O)N[C@@H](CCCNC(=N)N)C(=O)N[C@@H](CCCNC(=N)N)C(=O)N[C@@H](C)C(=O)N[C@@H](CCCNC(=N)N)C(=O)N[C@@H](CCC(=O)O)C(=O)N[C@@H](Cc1ccccc1)C(=O)N[C@H](C(=O)N[C@@H](CCC(N)=O)C(=O)N[C@@H](Cc1c[nH]c2ccccc12)C(=O)N[C@@H](CC(C)C)C(=O)N[C@@H](CC(C)C)C(=O)N[C@@H](CCCCNC(=O)CC[C@H](NC(=O)CC[C@H](NC(=O)COCCOCCNC(=O)COCCOCCNC(=O)CC[C@H](NC(=O)CCCCCCCCCCCCCCCCC(=O)O)C(=O)O)C(=O)O)C(=O)O)C(=O)N[C@H](C(N)=O)[C@@H](C)O)C(C)C` [Example 23, N^ε28-[(4S)-4-carboxy-4-[[(4S)-4-carboxy-4-[[2-[2-[2-[[2-[2-[2-[[(4S)-4-carboxy-4-(17-carboxyheptadecanoylamino)butanoyl]amino]ethoxy]ethoxy]acetyl]amino]ethoxy]ethoxy]acetyl]amino]butanoyl]amino]butanoyl]-[Aib2,Leu10,Glu15,Arg20,Glu21,Leu27,Lys28]-Glucagon amide] (H-H[Aib]QGTFTSDLSKYLESRRAREFVQWLLK([γGlu-γGlu-AEEA-AEEA-γGlu-C18 diacid])T-NH2; N-terminus assumed), the half-maximal effective concentration (EC50) (as a rule, the midpoint of the concentration-response curve) in assay [1] is 0.0221 nM; in assay [2] it was 0.0773 nM. Consider `CC(C)C[C@H](NC(=O)[C@H](Cc1ccc(O)cc1)NC(=O)[C@H](CCCCN)NC(=O)[C@H](CO)NC(=O)[C@H](CC(C)C)NC(=O)[C@H](CC(=O)O)NC(=O)[C@H](CO)NC(=O)[C@@H](NC(=O)[C@H](Cc1ccccc1)NC(=O)[C@@H](NC(=O)CNC(=O)[C@H](CCC(N)=O)NC(=O)C(C)(C)NC(=O)[C@@H](N)Cc1c[nH]cn1)[C@@H](C)O)[C@@H](C)O)C(=O)N[C@@H](CCC(=O)O)C(=O)N[C@@H](CO)C(=O)N[C@@H](CCCCN)C(=O)N[C@@H](CCCNC(=N)N)C(=O)N[C@@H](C)C(=O)N[C@@H](CCCNC(=N)N)C(=O)N[C@@H](CCC(=O)O)C(=O)N[C@@H](Cc1ccccc1)C(=O)N[C@H](C(=O)N[C@@H](CCC(N)=O)C(=O)N[C@@H](Cc1c[nH]c2ccccc12)C(=O)N[C@@H](CC(C)C)C(=O)N[C@@H](CC(C)C)C(=O)N[C@@H](CCCCNC(=O)CNC(=O)[C@H](CO)NC(=O)[C@H](CCC(=O)O)NC(=O)CNC(=O)[C@H](CO)NC(=O)CC[C@H](NC(=O)CC[C@H](NC(=O)CCCCCCCCCCCCCCCCC(=O)O)C(=O)O)C(=O)O)C(=O)N[C@H](C(N)=O)[C@@H](C)O)C(C)C` [Example 25, N^ε28-[2-[[(2S)-2-[[(2S)-4-carboxy-2-[[2-[[(2S)-2-[[(4S)-4-carboxy-4-[[(4S)-4-carboxy-4-(17-carboxyheptadecanoylamino)butanoyl]amino]butanoyl]amino]-3-hydroxypropanoyl]amino]acetyl]amino]butanoyl]amino]-3-hydroxypropanoyl]amino]acetyl]-[Aib2,Leu10,Glu15,Lys17,Arg20,Glu21,Leu27,Lys28]-Glucagon amide] (I: H-H[Aib]QGTFTSDLSKYLESKRAREFVQWLLKT-NH2 / II: {C18 diacid-γGlu-γGlu}-SGESG; amide I:28-II:C; N-terminus assumed), for which the EC50 in assay [2] came to 0.0447 nM. `CC(C)C[C@H](NC(=O)[C@H](Cc1c[nH]c2ccccc12)NC(=O)[C@H](C)NC(=O)[C@@H](NC(=O)[C@H](Cc1ccccc1)NC(=O)[C@H](CCC(=O)O)NC(=O)[C@H](CCCNC(=N)N)NC(=O)[C@H](C)NC(=O)[C@H](CCCNC(=N)N)NC(=O)[C@H](CCCNC(=N)N)NC(=O)[C@H](CO)NC(=O)[C@H](CCC(=O)O)NC(=O)[C@H](CC(C)C)NC(=O)[C@H](Cc1ccc(O)cc1)NC(=O)[C@H](CCCCN)NC(=O)[C@H](CO)NC(=O)[C@H](CC(C)C)NC(=O)[C@H](CC(=O)O)NC(=O)[C@H](CO)NC(=O)[C@@H](NC(=O)[C@H](Cc1ccccc1)NC(=O)[C@@H](NC(=O)CNC(=O)[C@H](Cc1c[nH]cn1)NC(=O)C(C)(C)NC(=O)[C@@H](N)Cc1c[nH]cn1)[C@@H](C)O)[C@@H](C)O)C(C)C)C(=O)N[C@@H](CC(C)C)C(=O)N[C@@H](CCCCNC(=O)CC[C@H](NC(=O)COCCOCCNC(=O)COCCOCCNC(=O)CC[C@H](NC(=O)CC[C@H](NC(=O)CCCCCCCCCCCCCCCCC(=O)O)C(=O)O)C(=O)O)C(=O)O)C(=O)N[C@H](C(N)=O)[C@@H](C)O` [Example 31, N^ε28-[(4S)-4-carboxy-4-[[2-[2-[2-[[2-[2-[2-[[(4S)-4-carboxy-4-[[(4S)-4-carboxy-4-(17-carboxyheptadecanoylamino)butanoyl]amino]butanoyl]amino]ethoxy]ethoxy]acetyl]amino]ethoxy]ethoxy]acetyl]amino]butanoyl]-[Aib2,His3,Leu10,Glu15,Arg20,Glu21,Ala24,Leu27, Lys28]-Glucagon amide] (H-H[Aib]HGTFTSDLSKYLESRRAREFVAWLLK([γGlu-AEEA-AEEA-γGlu-γGlu-C18 diacid])T-NH2; N-terminus assumed): the concentration giving a half-maximal response (EC50) in assay [2] is 0.0029 nM. In the case of `CC(C)C[C@H](NC(=O)[C@H](CC(=O)O)NC(=O)[C@H](CC(C)C)NC(=O)[C@H](Cc1ccc(O)cc1)NC(=O)[C@H](CCCNC(=N)N)NC(=O)[C@H](CO)NC(=O)[C@H](CC(C)C)NC(=O)[C@H](CC(=O)O)NC(=O)[C@H](CO)NC(=O)[C@@H](NC(=O)[C@H](Cc1ccccc1)NC(=O)[C@@H](NC(=O)CNC(=O)[C@H](CCC(N)=O)NC(=O)C1(NC(=O)[C@@H](N)Cc2c[nH]cn2)CCC1)[C@@H](C)O)[C@@H](C)O)C(=O)N[C@@H](CCCNC(=N)N)C(=O)N[C@@H](CCCNC(=N)N)C(=O)N[C@@H](C)C(=O)N[C@@H](CCCNC(=N)N)C(=O)N[C@@H](CC(=O)O)C(=O)N[C@@H](Cc1ccccc1)C(=O)N[C@H](C(=O)N[C@@H](CCC(N)=O)C(=O)N[C@@H](Cc1c[nH]c2ccccc12)C(=O)N[C@@H](CC(C)C)C(=O)N[C@@H](CC(C)C)C(=O)N[C@@H](CCCCNC(=O)CC[C@H](NC(=O)CC[C@H](NC(=O)COCCOCCNC(=O)COCCOCCNC(=O)CC[C@H](NC(=O)CC[C@H](NC(=O)CCCCCCCCCCCCCCCCC(=O)O)C(=O)O)C(=O)O)C(=O)O)C(=O)O)C(=O)N[C@H](C(N)=O)[C@@H](C)O)C(C)C` [Example 46, N^ε28-[(4S)-4-carboxy-4-[[(4S)-4-carboxy-4-[[2-[2-[2-[[2-[2-[2-[[(4S)-4-carboxy-4-[[(4S)-4-carboxy-4-(17-carboxyheptadecanoylamino)butanoyl]amino]butanoyl]amino]ethoxy]ethoxy]acetyl]amino]ethoxy]ethoxy]acetyl]amino]butanoyl]amino]butanoyl]-[Acb2,Leu10,Arg12,Leu16,Arg20,Leu27,Lys28]-Glucagon amide] (H-H[Ac4c]QGTFTSDLSRYLDLRRARDFVQWLLK([γGlu-γGlu-AEEA-AEEA-γGlu-γGlu-C18 diacid])T-NH2; N-terminus assumed), the concentration for a half-maximal effect (EC50) in assay [2] is 0.016 nM.
